Laboratory results: PubChem BioAssay (NCI)
Several values for one entry are separate records, joined by “and”; a condition that tells them apart may be missing. Identical values can stand only once.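 Step 1: Grow cells in 96-well plates. Step 2: Expose to compound for 48 hours at 5 concentrations. Step 3: Interpolate endpoints linearly; if unreached, use highest concentration. Here, GI50 denotes the concentration required for 50% inhibition of growth. At the TGI there is no net growth.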

Legend:
Experiment in all cases: NCI-60 cell line screen, 48 h
HOP-18 NSCLC = test system: HOP-18 NSCLC
SNB-78 CNS = test system: SNB-78 CNS
UACC-257 melanoma = test system: UACC-257 melanoma
OVCAR-4 ovarian = test system: OVCAR-4 ovarian
OVCAR-8 ovarian = test system: OVCAR-8 ovarian
NCI-H23 lung = test system: NCI-H23 lung
HCT-15 colon = test system: HCT-15 colon
SN12C renal = test system: SN12C renal
LXFL 529 NSCLC = test system: LXFL 529 NSCLC
OVCAR-3 ovarian = test system: OVCAR-3 ovarian
TK-10 renal = test system: TK-10 renal
DLD-1 colon = test system: DLD-1 colon
HOP-62 NSCLC = test system: HOP-62 NSCLC
K-562 leukemia = test system: K-562 leukemia
SK-MEL-2 melanoma = test system: SK-MEL-2 melanoma
SF-295 CNS = test system: SF-295 CNS
UACC-62 melanoma = test system: UACC-62 melanoma
IGROV1 ovarian = test system: IGROV1 ovarian
OVCAR-5 ovarian = test system: OVCAR-5 ovarian
COLO 205 colon = test system: COLO 205 colon
KM12 colon = test system: KM12 colon
NCI-H522 lung = test system: NCI-H522 lung
U251 CNS = test system: U251 CNS
CAKI-1 renal = test system: CAKI-1 renal
MOLT-4 leukemia = test system: MOLT-4 leukemia
M14 melanoma = test system: M14 melanoma
SF-539 CNS = test system: SF-539 CNS
DMS 114 small cell lung = test system: DMS 114 small cell lung
DMS 273 small cell lung = test system: DMS 273 small cell lung
HL-60(TB) leukemia = test system: HL-60(TB) leukemia
HCC-2998 colon = test system: HCC-2998 colon
EKVX NSCLC = test system: EKVX NSCLC
LOX IMVI melanoma = test system: LOX IMVI melanoma
SW-620 colon = test system: SW-620 colon
SK-OV-3 ovarian = test system: SK-OV-3 ovarian
SNB-19 CNS = test system: SNB-19 CNS
A498 renal = test system: A498 renal
HT29 colon = test system: HT29 colon
ACHN renal = test system: ACHN renal
HCT-116 colon = test system: HCT-116 colon
KM20L2 colon = test system: KM20L2 colon
M19-MEL melanoma = test system: M19-MEL melanoma
786-0 renal = test system: 786-0 renal
A549 NSCLC = test system: A549 NSCLC
MALME-3M melanoma = test system: MALME-3M melanoma
UO-31 renal = test system: UO-31 renal
SNB-75 CNS = test system: SNB-75 CNS
SK-MEL-5 melanoma = test system: SK-MEL-5 melanoma
HOP-92 NSCLC = test system: HOP-92 NSCLC
SK-MEL-28 melanoma = test system: SK-MEL-28 melanoma
RPMI-8226 leukemia = test system: RPMI-8226 leukemia
SF-268 CNS = test system: SF-268 CNS
CCRF-CEM leukemia = test system: CCRF-CEM leukemia
NCI-H460 lung = test system: NCI-H460 lung
NCI-H226 lung = test system: NCI-H226 lung
PC-3 prostate = test system: PC-3 prostate
DU-145 prostate = test system: DU-145 prostate
MDA-MB-231 breast = test system: MDA-MB-231 breast
MCF7 breast = test system: MCF7 breast
MDA-MB-435 = test system: MDA-MB-435
MDA-N = test system: MDA-N

COS(=O)(=O)OCCC(NC(=O)OCc1ccccc1)C(=O)OCc1ccccc1 (stereo not given)
TGI (HOP-18 NSCLC): > 100000 nM
TGI (SNB-78 CNS): > 100000 nM
TGI (UACC-257 melanoma): > 100000 nM
TGI (OVCAR-4 ovarian): > 100000 nM
TGI (OVCAR-8 ovarian): > 100000 nM
TGI (NCI-H23 lung): > 100000 nM
TGI (HCT-15 colon): > 100000 nM
TGI (SN12C renal): > 100000 nM
TGI (LXFL 529 NSCLC): > 100000 nM
TGI (OVCAR-3 ovarian): > 100000 nM
TGI (TK-10 renal): > 100000 nM
TGI (DLD-1 colon): > 100000 nM
TGI (HOP-62 NSCLC): > 100000 nM
TGI (K-562 leukemia): > 100000 nM
TGI (SK-MEL-2 melanoma): > 100000 nM
TGI (SF-295 CNS): > 100000 nM
TGI (UACC-62 melanoma): > 100000 nM
TGI (IGROV1 ovarian): > 100000 nM
TGI (OVCAR-5 ovarian): > 100000 nM
TGI (COLO 205 colon): > 100000 nM
TGI (KM12 colon): > 100000 nM
TGI (NCI-H522 lung): > 100000 nM
TGI (U251 CNS): > 100000 nM
TGI (CAKI-1 renal): > 100000 nM
TGI (MOLT-4 leukemia): > 100000 nM
TGI (M14 melanoma): > 100000 nM
TGI (SF-539 CNS): > 100000 nM
TGI (DMS 114 small cell lung): > 100000 nM
TGI (DMS 273 small cell lung): > 100000 nM
TGI (HL-60(TB) leukemia): > 100000 nM
TGI (HCC-2998 colon): > 100000 nM
TGI (EKVX NSCLC): > 100000 nM
TGI (LOX IMVI melanoma): > 100000 nM
TGI (SW-620 colon): > 100000 nM
TGI (SK-OV-3 ovarian): > 100000 nM
TGI (SNB-19 CNS): > 100000 nM
TGI (A498 renal): > 100000 nM
TGI (HT29 colon): > 100000 nM
TGI (ACHN renal): > 100000 nM
TGI (HCT-116 colon): > 100000 nM
TGI (KM20L2 colon): > 100000 nM
TGI (M19-MEL melanoma): > 100000 nM
TGI (786-0 renal): > 100000 nM
TGI (A549 NSCLC): > 100000 nM
TGI (MALME-3M melanoma): > 100000 nM
TGI (UO-31 renal): > 100000 nM
TGI (SNB-75 CNS): > 100000 nM
TGI (SK-MEL-5 melanoma): > 100000 nM
TGI (HOP-92 NSCLC): > 100000 nM
TGI (SK-MEL-28 melanoma): > 100000 nM
TGI (RPMI-8226 leukemia): > 100000 nM
TGI (SF-268 CNS): > 100000 nM
TGI (CCRF-CEM leukemia): > 100000 nM
TGI (NCI-H460 lung): > 100000 nM
TGI (NCI-H226 lung): > 100000 nM

COc1cc(C2C3=C(COC3=O)Oc3cc4c(cc32)OCO4)cc(OC)c1OC (stereo not given)
GI50 (HOP-18 NSCLC): > 100000 nM
TGI (HOP-18 NSCLC): > 100000 nM
TGI (SNB-78 CNS): 50600 nM
GI50 (PC-3 prostate): 20.3 nM
TGI (PC-3 prostate): 313 nM
TGI (UACC-257 melanoma): 2860 nM
TGI (OVCAR-4 ovarian): 28500 nM
GI50 (NCI-H23 lung): 28 nM
GI50 (DU-145 prostate): 22 nM
TGI (DU-145 prostate): 87.5 nM and 67.1 nM
GI50 (HCT-15 colon): 35.4 nM
GI50 (SN12C renal): 37 nM
TGI (SN12C renal): 20900 nM
TGI (MDA-MB-231 breast): 694 nM
TGI (OVCAR-3 ovarian): 70.9 nM and 88.3 nM
GI50 (MCF7 breast): 20.4 nM
TGI (DLD-1 colon): > 100000 nM
GI50 (HOP-62 NSCLC): 20 nM
TGI (HOP-62 NSCLC): 2140 nM
GI50 (K-562 leukemia): 32 nM
TGI (K-562 leukemia): 131 nM
GI50 (SK-MEL-2 melanoma): 262 nM
TGI (SF-295 CNS): 57.5 nM
TGI (UACC-62 melanoma): > 31600 nM
GI50 (IGROV1 ovarian): 18.1 nM
TGI (IGROV1 ovarian): 13300 nM
GI50 (COLO 205 colon): < 13.8 nM
TGI (COLO 205 colon): 92.9 nM and 38.5 nM
GI50 (KM12 colon): 10.1 nM
TGI (KM12 colon): 144 nM
GI50 (U251 CNS): < 21.3 nM
TGI (CAKI-1 renal): 134 nM
TGI (MOLT-4 leukemia): 15100 nM
GI50 (M14 melanoma): < 18.1 nM
TGI (M14 melanoma): > 31600 nM
GI50 (SF-539 CNS): 14.9 nM
TGI (SF-539 CNS): 49.7 nM and 42.7 nM
TGI (DMS 114 small cell lung): 38.4 nM and 13.1 nM
TGI (DMS 273 small cell lung): 12700 nM
TGI (HL-60(TB) leukemia): 50.2 nM and 41.3 nM
GI50 (HCC-2998 colon): 21.4 nM
TGI (HCC-2998 colon): 62 nM
GI50 (EKVX NSCLC): 660 nM
GI50 (LOX IMVI melanoma): 9.94 nM
TGI (LOX IMVI melanoma): > 31600 nM
TGI (SW-620 colon): > 31600 nM
GI50 (SK-OV-3 ovarian): 32 nM
TGI (SK-OV-3 ovarian): 13200 nM
GI50 (SNB-19 CNS): 47.4 nM
TGI (SNB-19 CNS): 17400 nM
GI50 (A498 renal): 36.3 nM
TGI (A498 renal): 18.6 nM
GI50 (HT29 colon): 10.5 nM and 26 nM
TGI (HT29 colon): 44.4 nM
GI50 (ACHN renal): < 15 nM
TGI (ACHN renal): 16400 nM
GI50 (MDA-MB-435): 48.5 nM
TGI (MDA-MB-435): 80.4 nM and 291 nM
TGI (HCT-116 colon): 235 nM and 1890 nM
TGI (KM20L2 colon): 42.1 nM and 28.3 nM
TGI (M19-MEL melanoma): > 100000 nM
GI50 (786-0 renal): 45.6 nM
GI50 (A549 NSCLC): < 20.4 nM
TGI (A549 NSCLC): 14200 nM
GI50 (MALME-3M melanoma): 36 nM
GI50 (UO-31 renal): < 31.5 nM
TGI (UO-31 renal): 16100 nM
GI50 (SK-MEL-5 melanoma): < 16.2 nM
TGI (SK-MEL-5 melanoma): 189 nM and 681 nM
GI50 (HOP-92 NSCLC): < 11.7 nM
TGI (HOP-92 NSCLC): 88.2 nM and 90.1 nM
TGI (MDA-N): 53.2 nM
GI50 (SK-MEL-28 melanoma): 11100 nM
TGI (SK-MEL-28 melanoma): > 31600 nM
GI50 (RPMI-8226 leukemia): < 17.6 nM
TGI (RPMI-8226 leukemia): > 31600 nM
GI50 (CCRF-CEM leukemia): 22.1 nM
TGI (CCRF-CEM leukemia): 338 nM and 62.5 nM
GI50 (NCI-H460 lung): < 18.5 nM
TGI (NCI-H226 lung): 230 nM
